In patent US20200055891A1, “NOVEL PHOSPHOTRIAZOLE MRNA 5'-END CAP ANALOGS, COMPOSITION COMPRISING THE SAME, RNA MOLECULE INCORPORATING THE SAME, USES THEREOF AND METHOD OF SYNTHESIZING RNA MOLECULE, PROTEIN OR PEPTIDE” (UNIWERSYTET WARSZAWSKI, priority 2016, published 2020):
Where a name gives a salt, the structure may show the parent alone.

Assays:
[1] = Hydrolysis in D2O seen in NMR spectra; assay type: physicochemical; details: dissolved in D2O just before NMR measurement; given if higher than 5%
Method: Some cap analogues hydrolyzed in D2O gradually. Although pure compounds (see HPLC profiles, Supporting Information 2) were dissolved in D2O just before measurements, the spectra indicated some level of hydrolysis. % of hydrolysis is provided along with compound characterization data, if higher than 5%.

[2] = test system: Rabbit Reticulocyte Lysate; assay: Translation efficiency of capped firefly luciferase mRNA in Rabbit Reticulocyte Lysate System; assay type: biochemical; details: relative, m^7GpppG = 1
Method: The reaction was quenched by addition of 2 μl of 0.5 M EDTA pH 8.0 and purified with NucleoSpin RNA Clean-up XS kit (Macherey-Nagel) to afford luciferase-coding RNA strands capped with appropriate cap analogue.
For each capped luciferase-coding RNA four diluted solutions were prepared—3.0 ng/μl, 1.5 ng/μl, 0.75 ng/μl, 0.375 ng/μl. Translation studies were performed using Rabbit Reticulocyte Lysate System (Promega). 9 μl of a mixture containing Rabbit Reticulocyte Lysate (4 μl), Amino Acid Mixture Minus Leucine (0.05 μl of 1 mM solution), Amino Acid Mixture Minus Methionine (0.05 μl of 1 mM solution), potassium acetate (1.9 μl of 1 M solution), MgCl2 (0.4 μl of 25 mM solution) and 2.1 μl of water was incubated at 30° C. for 1 h after which 1 μl of appropriate luciferase-coding RNA solution was added and incubation of the reaction was continued at 37° C. for another hour. The reaction was stopped by freezing in liquid nitrogen.
Translation efficiency was determined using Luciferase Reporter System (Promega). The samples were defrosted just before the experiment. To every sample 50 μl of Luciferase Assay Reagent was added just before measurement of luminescence on Synergy H1 Microplate Reader (Bio Tek). The measurement were performed for every four samples independently due to low stability of luminescence signal. The results are presented on. FIG. 4 as proportions between regression coefficients of linear relationships between capped luciferase-coding RNA concentration in translation reaction (300 pg/μl, 150 pg/μl, 75 pg/μl, 37.5 pg/μl) and corresponding luminescence signal.

SP6 RNA polymerase = target: T1, SP6 RNA polymerase (Enterobacteria phage SP6, UniProt P06221); assay: Capping efficiency: incorporation of cap analogues at the 5′ end of short transcripts by in vitro transcription; assay type: biochemical; details: 1.25 mM cap analogue, 0.125 mM GTP
T1 construct: purchased New England BioLabs
T1 sequence (P06221 1-874): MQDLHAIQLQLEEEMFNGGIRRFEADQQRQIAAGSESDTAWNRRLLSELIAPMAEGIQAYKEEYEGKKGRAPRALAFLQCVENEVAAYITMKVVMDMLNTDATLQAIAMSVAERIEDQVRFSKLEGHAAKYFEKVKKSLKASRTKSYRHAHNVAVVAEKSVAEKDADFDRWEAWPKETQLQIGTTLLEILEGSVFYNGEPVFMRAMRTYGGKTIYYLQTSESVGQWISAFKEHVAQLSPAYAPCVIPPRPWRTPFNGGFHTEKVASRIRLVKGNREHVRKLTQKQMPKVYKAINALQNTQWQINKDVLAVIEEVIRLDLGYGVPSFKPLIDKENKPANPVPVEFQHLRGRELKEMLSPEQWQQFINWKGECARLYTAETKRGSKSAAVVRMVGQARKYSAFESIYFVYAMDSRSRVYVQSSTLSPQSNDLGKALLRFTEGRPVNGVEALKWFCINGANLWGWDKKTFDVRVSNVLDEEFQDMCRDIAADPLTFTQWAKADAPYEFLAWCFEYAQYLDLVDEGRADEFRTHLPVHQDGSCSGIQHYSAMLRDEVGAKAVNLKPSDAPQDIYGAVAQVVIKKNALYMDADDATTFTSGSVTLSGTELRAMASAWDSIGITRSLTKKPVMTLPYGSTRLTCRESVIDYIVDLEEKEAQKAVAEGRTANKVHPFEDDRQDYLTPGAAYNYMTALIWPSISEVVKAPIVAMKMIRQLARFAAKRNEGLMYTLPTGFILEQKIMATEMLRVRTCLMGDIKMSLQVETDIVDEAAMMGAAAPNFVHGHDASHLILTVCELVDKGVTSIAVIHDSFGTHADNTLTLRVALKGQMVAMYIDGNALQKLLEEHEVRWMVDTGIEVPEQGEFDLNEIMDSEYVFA
Method: Prior to in vitro transcription annealing of a template was performed. DNA1 (SEQ ID NO: 1) and DNA2 (SEQ ID NO: 2) (20 μM each) were incubated in the presence of 4 mM Tris-HCl pH 8.0, 15 mM NaCl and 0.1 mM EDTA at 95° C. for 2 min and then at room temperature for 30 min. After 10-fold dilution the mixture was directly used for in vitro transcription.
The reaction was quenched by addition of 2 μl of 0.5 M EDTA pH 8.0 and purified with RNA Clean&Concentrator-5 kit (Zymo Research) to afford capped RNA1 (SEQ ID NO: 4) strands.
To reduce heterogeneity, each capped RNA1 (11.42 ng/μl, ca. 1 μM) was incubated in presence of 50 mM Tris-HCl pH 8.0, 50 mM MgCl2, RiboLock RNase Inhibitor (ThermoFisher Scientific) (2.0 U/μl) and DNA3 (SEQ ID NO: 3) (1 μM) at 37° C. for 1 h to afford RNA2 (SEQ ID NO: 5).^44 The reaction was stopped by freezing in liquid nitrogen and directly analyzed by PAGE (FIG. 3).
Relative bands intensity was determined using CLIQS v1.0 program.

[3] = Stability studies in buffers pH 3-9, RP HPLC; assay type: physicochemical; details: room temperature; for % of remaining cap, Bufor pH 7, 4 h / % of remaining cap, Bufor pH 7, 24 h: 0.1 M HEPES pH 7.0, 20 μM; for % of remaining cap, Bufor pH 5, 4 h / % of remaining cap, Bufor pH 5, 24 h: 0.1 M acetate buffer pH 5.0, 20 μM; for % of remaining cap, Bufor pH 9, 4 h / % of remaining cap, Bufor pH 9, 24 h: 0.1 M borate buffer pH 9.0, 20 μM; for % of remaining cap, Bufor pH 3, 4 h / % of remaining cap, Bufor pH 3, 24 h: 0.1 M formate buffer pH 3.0, 20 μM
Method: Analogues m2^7,2′-OGppp-triazole-C2H4NHppG, m2^7,2′-OGppp-triazole-C2H4OppG, m2^7,2′-OGppp-triazole-C2H4OpG, m2^7,2′-OGpp-triazole-C2H4OppG were incubated in sealed vials at 20 μM and at room temperature in four different buffers: 0.1 M formate buffer pH 3.0, 0.1 M acetate buffer pH 5.0, 0.1 M HEPES pH 7.0 and 0.1 M borate buffer pH 9.0. […] The starting compound peak area was determined for each time-point and % of remaining cap was calculated in reference to the time-point 0 h.

Row | SMILES | hydrolysis in D2O [1] [%] | Translation efficiency [2] | Capping efficiency (SP6 RNA polymerase) [%] | % of remaining cap, Bufor pH 7, 4 h [3] [%] | % of remaining cap, Bufor pH 7, 24 h [3] [%] | % of remaining cap, Bufor pH 5, 4 h [3] [%] | % of remaining cap, Bufor pH 5, 24 h [3] [%] | % of remaining cap, Bufor pH 9, 4 h [3] [%] | % of remaining cap, Bufor pH 9, 24 h [3] [%] | % of remaining cap, Bufor pH 3, 4 h [3] [%] | % of remaining cap, Bufor pH 3, 24 h [3] [%]
1 | [N-]=[N+]=NCCNP(=O)(O)OP(=O)(O)OC[C@H]1O[C@@H](n2cnc3c(=O)[nH]c(N)nc32)[C@H](O)[C@@H]1O [GppNHC2H4N3, N-(2-azidoethyl) β-phosphoramidate guanosine diphosphate ammonium salt] | 15 | – | – | – | – | – | – | – | – | – | –
2 | Nc1nc2c(ncn2[C@@H]2O[C@H](COP(=O)(O)OP(=O)(O)OP(=O)(O)OC[C@H]3O[C@@H](n4cnc5c(=O)[nH]c(N)nc54)[C@H](O)[C@@H]3O)[C@@H](O)[C@H]2O)c(=O)[nH]1 [GpppG, reference compound] | – | 0.058 ± 0.008 | 92 | – | – | – | – | – | – | – | –
3 | COC1C(O)[C@@H](COP(=O)(O)OP(=O)(O)OP(=O)([O-])c2cn(CCNP(=O)(O)OP(=O)(O)OC[C@H]3O[C@@H](n4cnc5c(=O)[nH]c(N)nc54)C(O)C3O)nn2)O[C@H]1n1c[n+](C)c2c(=O)[nH]c(N)nc21 (stereo partly shown) [m2^7,2′-OGppptC2H4NHppG, m2^7,2′-OGppp-triazole-C2H4NHppG] | – | 2.226 ± 0.399 | 43.0 | 0 | 0 | 0 | 0 | 0.5 | 3.0 | 19.0 | 72.9
4 | COC1C(O)[C@@H](COP(=O)(O)OP(=O)(O)OP(=O)([O-])c2cn(CCOP(=O)(O)OC[C@H]3O[C@@H](n4cnc5c(=O)[nH]c(N)nc54)C(O)C3O)nn2)O[C@H]1n1c[n+](C)c2c(=O)[nH]c(N)nc21 (stereo partly shown) [m2^7,2′-OGppptC2H4OpG, m2^7,2′-OGppp-triazole-C2H4OpG] | – | 2.773 ± 0.293 | 47.6 | 0 | 0 | 0 | 0 | 0.1 | 1.2 | 0 | 0
5 | COC1C(O)[C@@H](COP(=O)(O)OP(=O)(O)OP(=O)([O-])c2cn(CCOP(=O)(O)OP(=O)(O)OC[C@H]3O[C@@H](n4cnc5c(=O)[nH]c(N)nc54)C(O)C3O)nn2)O[C@H]1n1c[n+](C)c2c(=O)[nH]c(N)nc21 (stereo partly shown) [m2^7,2′-OGppptC2H4OppG, m2^7,2′-OGppp-triazole-C2H4OppG] | – | 1.749 ± 0.263 | 38.0 | 0 | 0 | 0 | 0 | – | – | 0 | 0
6 | COC1C(O)[C@@H](COP(=O)(O)OP(=O)([O-])c2cn(CCOP(=O)(O)OP(=O)(O)OC[C@H]3O[C@@H](n4cnc5c(=O)[nH]c(N)nc54)C(O)C3O)nn2)O[C@H]1n1c[n+](C)c2c(=O)[nH]c(N)nc21 (stereo partly shown) [m2^7,2′-OGpptC2H4OppG, m2^7,2′-OGpp-triazole-C2H4OppG] | – | 1.675 ± 0.168 | 44.2 | – | – | – | – | – | – | – | –
7 | C[n+]1cn([C@@H]2O[C@H](COP(=O)(O)NCCn3cc(CP(=O)(O)OP(=O)([O-])OC[C@H]4O[C@@H](n5cnc6c(=O)[nH]c(N)nc65)C(O)C4O)nn3)C(O)C2O)c2nc(N)[nH]c(=O)c21 (stereo partly shown) [m^7GpNHC2H4tCH2ppG, m^7GpNHC2H4-triazole-CH2ppG] | 11 | 0.085 ± 0.017 | 47 | – | – | – | – | – | – | – | –
8 | C[n+]1cn([C@@H]2O[C@H](COP(=O)(O)NCCn3cc(CP(=O)(O)OP(=O)([O-])OP(=O)(O)OC[C@H]4O[C@@H](n5cnc6c(=O)[nH]c(N)nc65)C(O)C4O)nn3)C(O)C2O)c2nc(N)[nH]c(=O)c21 (stereo partly shown) [m^7GpNHC2H4tCH2pppG, m^7GpNHC2H4-triazole-CH2pppG] | 7 | 0.060 ± 0.004 | 62 | – | – | – | – | – | – | – | –
9 | C[n+]1cn([C@@H]2O[C@H](COP(=O)(O)NCCn3cc(P(=O)([O-])OP(=O)(O)OC[C@H]4O[C@@H](n5cnc6c(=O)[nH]c(N)nc65)C(O)C4O)nn3)C(O)C2O)c2nc(N)[nH]c(=O)c21 (stereo partly shown) [m^7GpNHC2H4tppG, m^7GpNHC2H4-triazole-ppG] | 14 | 0.075 ± 0.009 | 57 | – | – | – | – | – | – | – | –
10 | C[n+]1cn([C@@H]2O[C@H](COP(=O)([O-])OP(=O)(O)Cc3cn(CCNP(=O)(O)OC[C@H]4O[C@@H](n5cnc6c(=O)[nH]c(N)nc65)C(O)C4O)nn3)C(O)C2O)c2nc(N)[nH]c(=O)c21 (stereo partly shown) [m^7GppCH2tC2H4NHpG, m^7GppCH2-triazole-C2H4NHpG] | – | 0.155 ± 0.019 | 54 | – | – | – | – | – | – | – | –
11 | C[n+]1cn([C@@H]2O[C@H](COP(=O)(O)OP(=O)([O-])c3cn(CCNP(=O)(O)OC[C@H]4O[C@@H](n5cnc6c(=O)[nH]c(N)nc65)C(O)C4O)nn3)C(O)C2O)c2nc(N)[nH]c(=O)c21 (stereo partly shown) [m^7GpptC2H4NHpG, m^7Gpp-triazole-C2H4NHpG] | – | 0.50 ± 0.06 | 56.8 | – | – | – | – | – | – | – | –
